In PubChem BioAssay AID1745844 (Carcinogenic Potency Database (CPDB), 2022):
Values joined by “and” are separate entries in the source; they are usually repeats but may differ in a detail not shown here. Equal entries are not always repeated. Active and inactive are the calls of the source. The rule behind the calls is not given here.

System: rodent lifetime carcinogenesis bioassay, tumor incidence TD50
Experiment: carcinogenic potency in animals, long-term in vivo studies, CPDB compilation (AID 1745844)
[1] = mouse, strain B6AKF1, females, oral dosing, site: liver, lesion: hepatoma, dosed 76 weeks, study length 76 weeks
[2] = mouse, strain B6AKF1, females, oral dosing, site: lung, lesion: adenoma, dosed 76 weeks, study length 76 weeks
[3] = mouse, strain B6AKF1, males, oral dosing, site: any site (literature study), lesion: several types, types named in the paper, dosed 76 weeks, study length 76 weeks
[4] = mouse, strain B6AKF1, males, oral dosing, site: liver, lesion: hepatoma, dosed 76 weeks, study length 76 weeks
[5] = mouse, strain B6AKF1, males, oral dosing, site: lung, lesion: adenoma, dosed 76 weeks, study length 76 weeks
[6] = mouse, strain B6C3F1, females, oral dosing, site: any site (literature study), lesion: several types, types named in the paper, dosed 76 weeks, study length 76 weeks
[7] = mouse, strain B6C3F1, females, oral dosing, site: liver, lesion: hepatoma, dosed 76 weeks, study length 76 weeks
[8] = mouse, strain B6C3F1, males, oral dosing, site: lung, lesion: adenoma, dosed 76 weeks, study length 76 weeks

O=P(OCCCl)(OCCCl)OCCCl showed a TD50 (mouse, strain B6C3F1, females, by gavage, site: Harderian gland, lesion: adenoma + carcinoma, dosed 104 weeks, study length 104 weeks) of 1390 mg/kg/day, a TD50 (mouse, strain B6C3F1, females, by gavage, site: any site (literature study), lesion: several types, types named in the paper, dosed 104 weeks, study length 104 weeks) of 610 mg/kg/day and a TD50 (mouse, strain B6C3F1, females, by gavage, site: liver, lesion: hepatocellular adenoma + hepatocellular carcinoma + neoplastic nodule, dosed 104 weeks, study length 104 weeks) of 2870 mg/kg/day. For the same compound, the TD50 (mouse, strain B6C3F1, females, by gavage, site: lung, lesion: alveolar/bronchiolar adenoma + alveolar/bronchiolar carcinoma, dosed 104 weeks, study length 104 weeks) was 4380 mg/kg/day, the TD50 (mouse, strain B6C3F1, females, by gavage, site: mammary gland, lesion: adenocarcinoma, dosed 104 weeks, study length 104 weeks) was 3050 mg/kg/day and the TD50 (mouse, strain B6C3F1, females, by gavage, site: uterus, lesion: endometrial stromal polyp, dosed 104 weeks, study length 104 weeks) was 2420 mg/kg/day. The TD50 (mouse, strain B6C3F1, males, by gavage, site: any site (literature study), lesion: several types, types named in the paper, dosed 104 weeks, study length 104 weeks) was 807 mg/kg/day, the TD50 (mouse, strain B6C3F1, males, by gavage, site: kidney, lesion: tubule adenoma + tubule carcinoma, dosed 104 weeks, study length 104 weeks) was 3510 mg/kg/day and 6810 mg/kg/day and the TD50 (mouse, strain B6C3F1, males, by gavage, site: kidney, lesion: tubule carcinoma, dosed 104 weeks, study length 104 weeks) was 8450 mg/kg/day. It also gave a TD50 (mouse, strain B6C3F1, males, by gavage, site: liver, lesion: hepatocellular adenoma + hepatocellular carcinoma + neoplastic nodule, dosed 104 weeks, study length 104 weeks) of 569 mg/kg/day, a TD50 (mouse, strain B6C3F1, males, by gavage, site: lung, lesion: alveolar/bronchiolar adenoma + alveolar/bronchiolar carcinoma, dosed 104 weeks, study length 104 weeks) of 61700 mg/kg/day and a TD50 (mouse, strain Slc:ddY, females, in feed, site: all sites, lesion: leukemia, dosed 78 weeks, study length 78 weeks) of 4790 mg/kg/day. The TD50 (mouse, strain Slc:ddY, females, in feed, site: any site (literature study), lesion: several types, types named in the paper, dosed 78 weeks, study length 78 weeks) was 880 mg/kg/day, the TD50 (mouse, strain Slc:ddY, females, in feed, site: forestomach, lesion: several types, types named in the paper, dosed 78 weeks, study length 78 weeks) was 5500 mg/kg/day and the TD50 (mouse, strain Slc:ddY, females, in feed, site: forestomach, lesion: squamous-cell carcinoma, dosed 78 weeks, study length 78 weeks) was 8970 mg/kg/day. The TD50 (mouse, strain Slc:ddY, females, in feed, site: liver, lesion: hepatocellular adenoma, dosed 78 weeks, study length 78 weeks) was 23000 mg/kg/day, the TD50 (mouse, strain Slc:ddY, males, in feed, site: any site (literature study), lesion: several types, types named in the paper, dosed 78 weeks, study length 78 weeks) was 185 mg/kg/day and the TD50 (mouse, strain Slc:ddY, males, in feed, site: kidney, lesion: renal-cell carcinoma, dosed 78 weeks, study length 78 weeks) was 844 mg/kg/day. The TD50 (mouse, strain Slc:ddY, males, in feed, site: kidney, lesion: several types, types named in the paper, dosed 78 weeks, study length 78 weeks) was 539 mg/kg/day, the TD50 (mouse, strain Slc:ddY, males, in feed, site: liver, lesion: hepatocellular carcinoma, dosed 78 weeks, study length 78 weeks) was 28800 mg/kg/day and the TD50 (mouse, strain Slc:ddY, males, in feed, site: liver, lesion: several types, types named in the paper, dosed 78 weeks, study length 78 weeks) was 1690 mg/kg/day. The TD50 (rat, strain Fischer 344, females, by gavage, site: any site (literature study), lesion: several types, types named in the paper, dosed 104 weeks, study length 104 weeks) was 39.9 mg/kg/day, the TD50 (rat, strain Fischer 344, females, by gavage, site: kidney, lesion: tubule adenoma, dosed 104 weeks, study length 104 weeks) was 187 mg/kg/day and the TD50 (rat, strain Fischer 344, females, by gavage, site: multiple organs, lesion: mononuclear-cell leukemia, dosed 104 weeks, study length 104 weeks) was 90.2 mg/kg/day. For the same compound, the TD50 (rat, strain Fischer 344, females, by gavage, site: thyroid gland, lesion: follicular-cell adenoma + follicular-cell carcinoma, dosed 104 weeks, study length 104 weeks) was 203 mg/kg/day, the TD50 (rat, strain Fischer 344, females, by gavage, site: thyroid gland, lesion: follicular-cell carcinoma, dosed 104 weeks, study length 104 weeks) was 280 mg/kg/day and the TD50 (rat, strain Fischer 344, females, by gavage, site: uterus, lesion: endometrial stromal sarcoma, dosed 104 weeks, study length 104 weeks) was 589 mg/kg/day. It also gave a TD50 (rat, strain Fischer 344, males, by gavage, site: adrenal medulla, lesion: pheochromocytoma benign, bilateral + pheochromocytoma, benign, dosed 104 weeks, study length 104 weeks) of 49.5 mg/kg/day, a TD50 (rat, strain Fischer 344, males, by gavage, site: any site (literature study), lesion: several types, types named in the paper, dosed 104 weeks, study length 104 weeks) of 56.8 mg/kg/day and a TD50 (rat, strain Fischer 344, males, by gavage, site: brain + cerebellum, meninges, lesion: granular-cell tumor, benign, dosed 104 weeks, study length 104 weeks) of 705 mg/kg/day. It also gave a TD50 (rat, strain Fischer 344, males, by gavage, site: kidney, lesion: tubule adenoma + tubule carcinoma, dosed 104 weeks, study length 104 weeks) of 56.4 mg/kg/day, a TD50 (rat, strain Fischer 344, males, by gavage, site: kidney, lesion: tubule adenoma, dosed 104 weeks, study length 104 weeks) of 56.9 mg/kg/day and a TD50 (rat, strain Fischer 344, males, by gavage, site: kidney, lesion: tubule carcinoma, dosed 104 weeks, study length 104 weeks) of 8400 mg/kg/day. The TD50 (rat, strain Fischer 344, males, by gavage, site: liver, lesion: hepatocellular adenoma + hepatocellular carcinoma + neoplastic nodule, dosed 104 weeks, study length 104 weeks) was 633 mg/kg/day, the TD50 (rat, strain Fischer 344, males, by gavage, site: multiple organs, lesion: mononuclear-cell leukemia, dosed 104 weeks, study length 104 weeks) was 107 mg/kg/day and the TD50 (rat, strain Fischer 344, males, by gavage, site: subcutaneous tissue, lesion: fibroma, dosed 104 weeks, study length 104 weeks) was 246 mg/kg/day. The TD50 (rat, strain Fischer 344, males, by gavage, site: thyroid gland, lesion: follicular-cell adenoma + follicular-cell carcinoma, dosed 104 weeks, study length 104 weeks) was 338 mg/kg/day.

For Nc1ccc(Cl)c(N)c1, the TD50 (mouse, strain B6C3F1, females, in feed, site: any site (literature study), lesion: several types, types named in the paper, dosed 78 weeks, study length 95 weeks) was 15400 mg/kg/day, the TD50 (mouse, strain B6C3F1, females, in feed, site: liver, lesion: hepatocellular adenoma + hepatocellular carcinoma + neoplastic nodule, dosed 78 weeks, study length 95 weeks) was 1230 mg/kg/day and the TD50 (mouse, strain B6C3F1, females, in feed, site: liver, lesion: hepatocellular adenoma + hepatocellular carcinoma, dosed 78 weeks, study length 95 weeks) was 1230 mg/kg/day. The TD50 (mouse, strain B6C3F1, females, in feed, site: liver, lesion: hepatocellular carcinoma, dosed 78 weeks, study length 95 weeks) was 1780 mg/kg/day, the TD50 (mouse, strain B6C3F1, males, in feed, site: any site (literature study), lesion: several types, types named in the paper, dosed 78 weeks, study length 94 weeks) was 7320 mg/kg/day (inactive) and the TD50 (mouse, strain B6C3F1, males, in feed, site: liver, lesion: hepatocellular adenoma + hepatocellular carcinoma + neoplastic nodule, dosed 78 weeks, study length 94 weeks) was 7050 mg/kg/day. The TD50 (rat, strain Fischer 344, females, in feed, site: any site (literature study), lesion: several types, types named in the paper, dosed 78 weeks, study length 104 weeks) was 479 mg/kg/day, the TD50 (rat, strain Fischer 344, females, in feed, site: liver, lesion: hepatocellular adenoma + hepatocellular carcinoma + neoplastic nodule, dosed 78 weeks, study length 104 weeks) was 2680 mg/kg/day and the TD50 (rat, strain Fischer 344, females, in feed, site: uterus, lesion: endometrial stromal polyp, dosed 78 weeks, study length 104 weeks) was 175 mg/kg/day (inactive). For the same compound, the TD50 (rat, strain Fischer 344, males, in feed, site: adrenal gland, lesion: pheochromocytoma, dosed 78 weeks, study length 104 weeks) was 315 mg/kg/day, the TD50 (rat, strain Fischer 344, males, in feed, site: any site (literature study), lesion: several types, types named in the paper, dosed 78 weeks, study length 104 weeks) was 422 mg/kg/day and the TD50 (rat, strain Fischer 344, males, in feed, site: liver, lesion: hepatocellular adenoma + hepatocellular carcinoma + neoplastic nodule, dosed 78 weeks, study length 104 weeks) was 1570 mg/kg/day.

In the case of CCCCN(CC)C(=O)SCCC, the TD50 (mouse, strain B6AKF1, females, oral dosing, site: any site (literature study), lesion: several types, types named in the paper, dosed 76 weeks, study length 76 weeks) is reported as 219 mg/kg/day (inactive), the carcinogen call [1] is reported as “negative (inactive)” and the TD50 [2] is reported as 113 mg/kg/day (inactive). The carcinogen call [3] was “negative (inactive)”, the carcinogen call [4] was “negative (inactive)” and the carcinogen call [5] was “negative (inactive)”. The TD50 [6] was 251 mg/kg/day (inactive), the carcinogen call [7] was “negative (inactive)” and the TD50 (mouse, strain B6C3F1, females, oral dosing, site: lung, lesion: adenoma, dosed 76 weeks, study length 76 weeks) was 267 mg/kg/day (inactive). For the same compound, the carcinogen call (mouse, strain B6C3F1, males, oral dosing, site: any site (literature study), lesion: several types, types named in the paper, dosed 76 weeks, study length 76 weeks) was “negative (inactive)”, the carcinogen call (mouse, strain B6C3F1, males, oral dosing, site: liver, lesion: hepatoma, dosed 76 weeks, study length 76 weeks) was “negative (inactive)” and the carcinogen call [8] was “negative (inactive)”.

For Oc1c(Cl)cc(Cl)cc1Sc1cc(Cl)cc(Cl)c1O, the carcinogen call [1] was “negative (inactive)”, the TD50 [2] was 100 mg/kg/day and the carcinogen call [2] was “negative (inactive)”. For the same compound, the carcinogen call [3] was “negative (inactive)”, the carcinogen call [4] was “negative (inactive)” and the carcinogen call [5] was “negative (inactive)”. The carcinogen call (mouse, strain B6C3F1, females, oral dosing, site: any site (literature study), lesion: one or several types, types not named, dosed 76 weeks, study length 76 weeks) was “negative (inactive)”, the TD50 [6] was 43 mg/kg/day and the carcinogen call [7] was “negative (inactive)”. The carcinogen call (mouse, strain B6C3F1, females, oral dosing, site: lung, lesion: several types, types named in the paper, dosed 76 weeks, study length 76 weeks) was “negative (inactive)”, the TD50 (mouse, strain B6C3F1, males, oral dosing, site: liver, lesion: angioma, dosed 76 weeks, study length 76 weeks) was 88.2 mg/kg/day and the TD50 (mouse, strain B6C3F1, males, oral dosing, site: liver, lesion: several types, types named in the paper, dosed 76 weeks, study length 76 weeks) was 2.28 mg/kg/day (inactive). The TD50 [8] was 88.2 mg/kg/day and the carcinogen call (mouse, strain B6C3F1, males, oral dosing, site: lung, lesion: several types, types named in the paper, dosed 76 weeks, study length 76 weeks) was “negative (inactive)”.

Nc1ccc(-c2ccc(F)cc2)cc1 gave a TD50 (mouse, strain CBA, females, by gavage, site: liver, lesion: hepatoma, dosed 26 weeks, study length 114 weeks) of 1.09 mg/kg/day, a TD50 (mouse, strain CBA, males, by gavage, site: liver, lesion: hepatoma, dosed 26 weeks, study length 104 weeks) of 1.19 mg/kg/day and a TD50 (mouse, strain CBA, males, by gavage, site: liver, lesion: several types, types named in the paper, dosed 26 weeks, study length 104 weeks) of 1.19 mg/kg/day.

CC(C)(C)NC[C@H](O)COc1cccc2c1CCCC2=O was tested, and the TD50 (mouse, strain CF-1, females, in feed, site: liver, lesion: hepatoma, dosed 78 weeks, study length 78 weeks) was 5010 mg/kg/day, the TD50 (mouse, strain CF-1, females, in feed, site: lung, lesion: alveogenic adenocarcinoma, dosed 78 weeks, study length 78 weeks) was 2500 mg/kg/day and the TD50 (mouse, strain CF-1, females, in feed, site: uterus, lesion: leiomyoma, dosed 78 weeks, study length 78 weeks) was 1220 mg/kg/day. The TD50 (rat, strain Wistar albino, females, in feed, site: liver, lesion: hepatoma, benign, dosed 104 weeks, study length 104 weeks) was 2360 mg/kg/day, the TD50 (rat, strain Wistar albino, females, in feed, site: mammary gland, lesion: fibroadenoma, dosed 104 weeks, study length 104 weeks) was 71 mg/kg/day and the TD50 (rat, strain Wistar albino, males, in feed, site: liver, lesion: hepatoma, benign, dosed 104 weeks, study length 104 weeks) was 982 mg/kg/day. It also gave a TD50 (rat, strain Wistar albino, males, in feed, site: pituitary gland, lesion: adenoma, dosed 104 weeks, study length 104 weeks) of 71.9 mg/kg/day.
